We go through eleven compounds from ChEMBL document CHEMBL1148609, “Orally active purine-based inhibitors of the heat shock protein 90” (J Med Chem, 2006).

The test deals with Heat shock protein HSP 90-alpha (Homo sapiens) (UniProt P07900). Nature of the test: Hsp90 inhibition measured as HER-2 degradation in MCF-7 cells.
A word on the IC50: it is the concentration that gives 50% inhibition. `COc1ccc(I)c(Sc2nc3c(N)ncnc3n2CCCNC(C)(C)C)c1` came in with an IC50 of 140 nM.
The result for `CCCCn1c(Cc2cc(OC)ccc2Cl)nc2c(N)ncnc21` reads 20000 nM.
The compound `C#CCCCn1c(Sc2cc(OC)ccc2I)nc2c(N)nc(F)nc21` registered an IC50 of 360 nM.
The compound `COc1ccc(I)c(Sc2nc3c(N)ncnc3n2CCCNC(C)C)c1` had an IC50 of 180 nM.
`CCCCn1c(Cc2cc(OC)ccc2I)nc2c(N)ncnc21`: the IC50 came to 5000 nM.
`CCC(C)NCCCn1c(Sc2cc(OC)ccc2I)nc2c(N)ncnc21` (stereo unspecified): the IC50 stood at 210 nM.
With `CCCCn1c(Cc2cc(OC)ccc2OC)nc2c(N)ncnc21`, the IC50 stood at 12000 nM.
In the case of `CCC(CC)NCCCn1c(Sc2cc(OC)ccc2I)nc2c(N)ncnc21` it was 210 nM; in that of `CCCCn1c(Sc2cc(OC)ccc2OC)nc2c(N)ncnc21`, 3500 nM; in that of `COc1ccc(I)c(Sc2nc3c(N)ncnc3n2CCC=C(C)C)c1`, 370 nM.
The compound `CCCCn1c(Cc2cc(OC)ccc2Br)nc2c(N)ncnc21` showed an IC50 of 8000 nM.
